# Source: patent US5356920A, “Imidazol-2-yl derivatives of substituted bicyclic compounds” (priority 1990, dated 1994)
# Experiments:
# [1] = target: T1, acyl CoA:cholesterol acyltransferase (ACAT-EC 2.3.1.26) (Oryctolagus cuniculus, UniProt A0A5F9CPP4); assay: ACAT inhibition in microsomes from atherosclerotic rabbit thoracic aorta (intima media); format: biochemical; details: microsomes from atherosclerotic rabbit thoracic aortas; limits p = 0.95
# T1 construct: microsomal preparations from atherosclerotic rabbit thoracic aorta (intima media); from tissue; host or cells: microsomes from atherosclerotic rabbit thoracic aorta (intima media)
# T1 sequence (A0A5F9CPP4 1-555): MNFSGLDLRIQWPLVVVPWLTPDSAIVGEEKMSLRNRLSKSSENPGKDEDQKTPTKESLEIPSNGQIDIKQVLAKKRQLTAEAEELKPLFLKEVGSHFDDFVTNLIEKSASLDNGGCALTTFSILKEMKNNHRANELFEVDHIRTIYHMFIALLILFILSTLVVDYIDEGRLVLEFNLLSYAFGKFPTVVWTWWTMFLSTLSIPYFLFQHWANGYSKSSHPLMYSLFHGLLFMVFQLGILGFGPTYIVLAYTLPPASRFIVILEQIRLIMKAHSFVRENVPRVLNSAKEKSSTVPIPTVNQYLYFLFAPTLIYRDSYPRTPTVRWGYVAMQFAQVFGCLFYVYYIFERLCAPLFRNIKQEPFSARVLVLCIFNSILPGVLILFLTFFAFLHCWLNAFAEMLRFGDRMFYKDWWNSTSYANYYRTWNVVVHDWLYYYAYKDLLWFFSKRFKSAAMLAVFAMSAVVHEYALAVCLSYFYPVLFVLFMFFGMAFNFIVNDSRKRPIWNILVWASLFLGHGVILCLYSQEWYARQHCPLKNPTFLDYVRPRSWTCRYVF
# [2] = orientative acute toxicity (LD50), single oral administration, assessed on the seventh day, mice; details: mouse, in vivo, nine hours food deprived
# Description: The toxicity of the compounds of the invention is negligible, therefore they can be safely used in therapy. Nine hours food deprived mice and rats were treated orally with single administration of increasing doses, then housed and normally fed. The orientative acute toxicity (LD50) was assessed on the seventh day after the treatment, for instance a LD50 greater than 800 mg/kg was found in mice for the compound coded as FCE 27116.
# [3] = target: T1, acyl CoA:cholesterol acyltransferase (ACAT-EC 2.3.1.26); details: Hudson H., Day A., Atherosclerosis (1982) 45, 109; cited from earlier work
SMILES,IC50 [1] [nM],LD50 at 168 h [2] [mg/kg],inhibitory activity in vitro (rabbit arterial microsomes) [3]
"CCCC1Oc2ccc(OCCCC(C)(C)C(=O)OCC)cc2C=C1c1nccn1C (racemic) [FCE 25184, ethyl (+-)-5-[2-propyl-3-(1-methyl-1H-imidazol-2-yl)-2H-benzopyran-6-yl]oxy-2,2-dimethylpentanoate, reference compound]",1060,–,–
"CC(C)c1cccc(C(C)C)c1NC(=O)C(C)(C)CCCOc1ccc2c(c1)C=C(c1nccn1C)C(CCc1ccccc1)O2 (racemic) [FCE 26734, (+-)-5-[2-(2-phenylethyl)-3-(1-methyl-1H-imidazol-2-yl)-2H-1-benzopyran-6-yl]oxy-2,2-dimethyl-N-(2,6-diisopropylphenyl)pentanamide]",85.1,–,–
"CCOC(=O)C1(CCCOc2ccc3c(c2)C=C(c2nccn2C)C(CCc2ccccc2)O3)CCCC1 (racemic) [FCE 27051, ethyl (+-)-1-[3-(2-(2-phenylethyl)-3-(1-methyl-1H-imidazol-2-yl)-2H-1-benzopyran-6-yl)oxypropyl]cyclopentane-1-carboxylate]",66.8,–,–
"CC(C)c1cccc(C(C)C)c1NC(=O)C(C)(C)CCCOc1ccc2c(c1)C=C(c1nccn1C)C(CCc1ccc(F)cc1F)O2 (racemic) [FCE 27113, (+-)-5-[2-(2-(2,4-difluorophenyl)ethyl)-3-(1-methyl-1H-imidazol-2-yl)-2H-1-benzopyran-6-yl)oxy-2,2-dimethyl-N-(2,6-diisopropylphenyl)pentanamide]",82.2,–,–
"Cn1ccnc1C1=Cc2cc(OCCCC(C)(C)C(=O)NC3CCCCC3)ccc2OC1CCc1ccc(F)cc1 (racemic) [FCE 27116, (+-)-5-[2-(2-(4-fluorophenyl)ethyl)-3-(1-methyl-1H-imidazol-2-yl)-2H-1-benzopyran-6-yl]oxy-2,2-dimethyl-N-cyclohexylpentanamide]",39.9,> 800,–
CC(C)(Oc1ccc(CCNC(=O)c2ccc(Cl)cc2)cc1)C(=O)O [Bezafibrate],–,–,inhibitory activity in vitro (rabbit arterial microsomes) has been already demonstrated
